This is an account of results in paper PMC9916866 (International Journal of Molecular Sciences, 2023).

Test [1] addresses T1, AT1 receptor (Rattus norvegicus, UniProt P25095). As to the kind of experiment: biochemical. It counts as binding. The settings on record: read-out: inhibition of the specific labelling by Cy5-AngII, AT1.
Test [2] addresses T2, AT1 receptor (Homo sapiens, UniProt P30556).
T2 sequence (P30556 1-359): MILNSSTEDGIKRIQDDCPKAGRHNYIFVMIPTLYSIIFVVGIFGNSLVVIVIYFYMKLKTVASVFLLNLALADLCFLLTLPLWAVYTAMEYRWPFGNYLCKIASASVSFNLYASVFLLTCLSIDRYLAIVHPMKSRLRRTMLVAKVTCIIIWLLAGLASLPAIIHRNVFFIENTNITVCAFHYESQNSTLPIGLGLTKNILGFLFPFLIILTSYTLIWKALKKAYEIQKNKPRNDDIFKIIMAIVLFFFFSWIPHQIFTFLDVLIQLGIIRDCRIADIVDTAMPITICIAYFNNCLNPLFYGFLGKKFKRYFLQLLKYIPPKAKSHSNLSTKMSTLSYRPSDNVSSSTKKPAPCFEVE
Nature of the test: cell-based. It counts as cell-based. Also noted: expressed in transfected cells; host or cells: HEK293T.

Test [3] deals with T2, AT1 receptor. As to the kind of experiment: cell-based.
The target of test [4] is T1, AT1 receptor. As to the kind of experiment: cell-based.
A further test concerns the target T3, human AT2 receptor (Homo sapiens, UniProt P50052).
T3 construct: expressed in transfected cells; host or cells: HEK293T
T3 sequence (P50052 1-363): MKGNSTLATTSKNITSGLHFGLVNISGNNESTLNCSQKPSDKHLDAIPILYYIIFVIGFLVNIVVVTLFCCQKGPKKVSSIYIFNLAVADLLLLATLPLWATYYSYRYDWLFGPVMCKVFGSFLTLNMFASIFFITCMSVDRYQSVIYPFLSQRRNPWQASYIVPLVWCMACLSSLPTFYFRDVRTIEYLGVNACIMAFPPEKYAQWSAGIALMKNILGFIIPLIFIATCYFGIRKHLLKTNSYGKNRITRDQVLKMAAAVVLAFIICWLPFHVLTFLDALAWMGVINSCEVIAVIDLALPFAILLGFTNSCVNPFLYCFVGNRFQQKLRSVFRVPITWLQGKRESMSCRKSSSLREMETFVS
As to the kind of experiment: biochemical. It counts as binding.

The target of test [5] is T2, AT1 receptor. Nature of the test: biochemical. The test is classed as binding. Also noted: expressed in transfected cells; host or cells: HEK293T.
In test [6] the target is T1, AT1 receptor. Nature of the test: cell-based. The settings on record: read-out: inhibition of AngII-induced ERK1/2 phosphorylation (western blot). On the technique in general: A western blot detects proteins with antibodies after separation by electrophoresis.

Read-outs that look alike come from different tables or passages of the source. Positions of bridges follow the written chain, without caps; N, C: chain ends. Residues, ends and D or L forms follow the SMILES beside them.

T1 sequence (P25095 whole entry, looked up): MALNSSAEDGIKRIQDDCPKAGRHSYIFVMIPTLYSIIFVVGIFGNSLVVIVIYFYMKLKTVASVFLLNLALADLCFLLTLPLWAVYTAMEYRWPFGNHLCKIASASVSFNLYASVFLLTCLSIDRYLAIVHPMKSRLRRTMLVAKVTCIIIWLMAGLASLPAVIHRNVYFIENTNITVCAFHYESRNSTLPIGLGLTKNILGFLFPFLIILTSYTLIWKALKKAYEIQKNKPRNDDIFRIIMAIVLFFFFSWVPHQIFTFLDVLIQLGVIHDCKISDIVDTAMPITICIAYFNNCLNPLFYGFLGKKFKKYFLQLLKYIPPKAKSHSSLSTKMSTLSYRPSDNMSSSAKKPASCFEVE

One may read the IC50 as the concentration at which inhibition is half-maximal. Lower therefore signals higher potency. Usually Ki stands for the dissociation constant of the complex between target and ligand, obtained from inhibition or displacement. For the molecule `CC(C)[C@@H]1NC(=O)[C@H](Cc2c[nH]c3ccccc23)NC(=O)[C@H](Cc2ccccc2)NC(=O)[C@H](Cc2c[nH]cn2)NC(=O)[C@@H](N)CSSC[C@@H](C(=O)N2CCC[C@H]2C(=O)O)NC1=O` [A-CTX-cMila] (H-CHFWVCP-OH; disulfide 1-6), the inhibition at 100 µM at AT1 receptor [1] came to 74%. In addition, the IC50 on AT1 receptor [2] came to 28.5 ± 12 µM; against AT1 receptor [3] it was 15.6 ± 3 µM; against AT1 receptor [4] it was 23.7 ± 4.6 µM. The Kb at AT1 receptor [3] (KB, β-arrestin 2 recruitment) is 4.1 ± 3.1 µM; at AT1 receptor [3] (pA2, β-arrestin 2 recruitment), 2 µM. The Ki at human AT2 receptor came out at 27.5 ± 2.1 µM; on AT1 receptor [5], 0.32 ± 0.13 µM. Besides, at AT1 receptor [6], the inhibition at 20 µM was 89%.
